Read-outs that look alike come from different tables or passages of the source.
Columns and labels:
[1] = biological target: CDK2/cyclin E (Homo sapiens (Human), UniProt P24941); assay: Kinase assay CDK2/cyclin E; type: biochemical; details: for IC50: read-out: Kinase inhibition CDK2/cyclin E IC50; for A × B: comparative in vitro efficacy; for B: IC50 CDK2 roscovitine/IC50 CDK2 compound: ratio to roscovitine
Procedure: (§3) Recombinant cyclin D1 was expressed in E. coli. […] Reactions were stopped on ice, followed by filtration through p81 filterplates or GF/C filterplates (for CDK4) (Whatman Polyfiltronics, Kent, UK), except for CDK7 where, after stopping reaction on ice, 10 μL of 10 mg/mL avidin was added to each well and further incubated for 10 min followed by filtration as per CDK2 assay. After washing 3 times with 75 mM aq orthophosphoric acid, plates were dried, scintillant added and incorporated radioactivity measured in a scintillation counter (TopCount, Packard Instruments, Pangbourne, Berks, UK). Compounds for kinase assay were made up as 10 mM stocks in DMSO and diluted into 10% DMSO in assay buffer.

[2] = biological target: CDK7/cyclin H (Homo sapiens (Human), UniProt P50613); assay: Kinase assay CDK7/cyclin H; type: biochemical; details: read-out: Kinase inhibition CDK7/cyclin H IC50
CDK7/cyclin H, sequence (P50613 whole entry): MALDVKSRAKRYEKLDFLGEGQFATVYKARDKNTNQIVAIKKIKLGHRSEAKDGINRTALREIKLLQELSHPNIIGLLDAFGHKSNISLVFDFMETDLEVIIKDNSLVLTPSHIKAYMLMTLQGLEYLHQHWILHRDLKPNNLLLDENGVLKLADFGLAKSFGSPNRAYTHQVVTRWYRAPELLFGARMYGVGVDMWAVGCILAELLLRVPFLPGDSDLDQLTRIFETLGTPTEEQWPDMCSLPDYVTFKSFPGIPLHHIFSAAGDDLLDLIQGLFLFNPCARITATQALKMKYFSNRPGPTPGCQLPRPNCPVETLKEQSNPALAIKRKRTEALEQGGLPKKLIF
CDK7/cyclin H, sequence (P51946 whole entry partner): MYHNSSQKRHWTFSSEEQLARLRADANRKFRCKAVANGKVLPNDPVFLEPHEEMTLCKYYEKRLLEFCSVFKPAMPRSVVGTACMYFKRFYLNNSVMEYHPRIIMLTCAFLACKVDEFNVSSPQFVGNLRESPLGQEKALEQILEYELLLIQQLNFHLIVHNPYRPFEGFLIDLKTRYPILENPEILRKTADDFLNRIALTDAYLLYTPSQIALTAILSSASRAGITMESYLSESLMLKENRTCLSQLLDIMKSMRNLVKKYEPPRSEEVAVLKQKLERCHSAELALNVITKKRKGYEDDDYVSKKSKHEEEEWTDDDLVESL
Procedure: Reactions were stopped on ice, followed by filtration through p81 filterplates or GF/C filterplates (for CDK4) (Whatman Polyfiltronics, Kent, UK), except for CDK7 where, after stopping reaction on ice, 10 μL of 10 mg/mL avidin was added to each well and further incubated for 10 min followed by filtration as per CDK2 assay. After washing 3 times with 75 mM aq orthophosphoric acid, plates were dried, scintillant added and incorporated radioactivity measured in a scintillation counter (TopCount, Packard Instruments, Pangbourne, Berks, UK). Compounds for kinase assay were made up as 10 mM stocks in DMSO and diluted into 10% DMSO in assay buffer.

[3] = biological target: CDK1/cyclin B (Homo sapiens (Human), UniProt P06493); assay: Kinase assay CDK1/cyclin B; type: biochemical; details: read-out: Kinase inhibition CDK1/cyclin B IC50
CDK1/cyclin B, sequence (P06493 whole entry): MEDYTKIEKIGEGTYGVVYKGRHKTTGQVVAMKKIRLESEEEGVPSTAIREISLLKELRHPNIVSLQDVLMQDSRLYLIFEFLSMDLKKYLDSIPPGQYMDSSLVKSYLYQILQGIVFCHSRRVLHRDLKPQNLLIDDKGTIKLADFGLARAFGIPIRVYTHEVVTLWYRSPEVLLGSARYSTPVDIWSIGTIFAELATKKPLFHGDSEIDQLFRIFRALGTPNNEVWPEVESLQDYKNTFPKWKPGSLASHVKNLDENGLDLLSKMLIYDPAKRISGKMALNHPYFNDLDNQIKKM
CDK1/cyclin B, sequence (P14635 whole entry partner): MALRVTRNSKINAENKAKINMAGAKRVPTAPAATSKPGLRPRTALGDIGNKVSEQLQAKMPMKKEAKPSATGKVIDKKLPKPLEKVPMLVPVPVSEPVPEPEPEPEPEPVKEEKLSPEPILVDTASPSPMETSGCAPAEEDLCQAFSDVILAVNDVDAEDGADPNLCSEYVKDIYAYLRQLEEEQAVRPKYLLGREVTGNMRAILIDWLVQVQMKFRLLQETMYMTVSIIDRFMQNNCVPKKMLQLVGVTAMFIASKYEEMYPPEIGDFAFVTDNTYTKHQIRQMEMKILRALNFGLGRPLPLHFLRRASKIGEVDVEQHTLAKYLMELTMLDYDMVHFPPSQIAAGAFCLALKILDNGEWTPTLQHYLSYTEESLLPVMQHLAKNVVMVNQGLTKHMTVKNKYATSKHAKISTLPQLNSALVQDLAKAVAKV
Procedure: as §3

[4] = biological target: ERK-2 (Homo sapiens (Human), UniProt P28482); assay: Kinase assay ERK-2; details: read-out: Kinase inhibition ERK2 IC50
ERK-2, sequence (P28482 whole entry, species assumed): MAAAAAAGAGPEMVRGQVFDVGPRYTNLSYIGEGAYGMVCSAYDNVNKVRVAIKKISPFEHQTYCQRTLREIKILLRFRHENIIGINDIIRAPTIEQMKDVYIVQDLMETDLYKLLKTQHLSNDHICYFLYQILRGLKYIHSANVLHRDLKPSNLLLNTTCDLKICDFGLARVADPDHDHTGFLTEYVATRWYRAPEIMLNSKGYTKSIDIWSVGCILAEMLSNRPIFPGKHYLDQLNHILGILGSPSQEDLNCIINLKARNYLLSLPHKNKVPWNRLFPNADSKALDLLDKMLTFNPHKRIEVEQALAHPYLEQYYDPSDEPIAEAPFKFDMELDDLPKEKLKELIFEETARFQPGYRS
Procedure: as §3

[5] = tested on: Human tumour cell lines: A549, HT29, Saos-2; assay: 72-h MTT cytotoxicity assay, tumour cell lines A549, HT29, Saos-2; type: cell-based; details: for IC50: 72 h, read-out: In vitro anti-proliferative activity (72-h MTT IC50), Human tumour cell lines: A549, HT29, Saos-2; for C: IC50 cytotox. roscovitine/IC50 cytotox. compound: ratio to roscovitine
Procedure: (§1) In short: cells were seeded into 96-well plates according to doubling time and incubated overnight at 37° C. Test compounds were made up in DMSO and a ⅓ dilution series prepared in 100 μL cell media, added to cells (in triplicates) and incubated for 72 ho at 37° C. MTT was made up as a stock of 5 mg/mL in cell media and filter-sterilised. Media was removed from cells followed by a wash with 200 μL PBS. MTT solution was then added at 20 μL per well and incubated in the dark at 37° C. for 4 h. MTT solution was removed and cells again washed with 200 μL PBS. MTT dye was solubilised with 200 μL per well of DMSO with agitation.

[6] = biological target: CDK4/cyclin D1 (Homo sapiens (Human), UniProt P11802); details: read-out: Kinase inhibition CDK4/cyclin D1 IC50
CDK4/cyclin D1, sequence (P11802 whole entry): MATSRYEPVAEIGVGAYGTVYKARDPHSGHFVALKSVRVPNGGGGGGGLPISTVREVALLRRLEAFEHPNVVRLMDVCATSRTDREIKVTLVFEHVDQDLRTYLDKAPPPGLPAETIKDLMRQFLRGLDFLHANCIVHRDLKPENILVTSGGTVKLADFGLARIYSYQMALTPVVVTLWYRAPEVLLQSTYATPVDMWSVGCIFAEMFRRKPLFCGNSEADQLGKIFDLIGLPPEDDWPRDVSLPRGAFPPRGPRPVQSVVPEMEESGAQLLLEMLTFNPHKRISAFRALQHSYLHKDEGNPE
CDK4/cyclin D1, sequence (P24385 whole entry partner): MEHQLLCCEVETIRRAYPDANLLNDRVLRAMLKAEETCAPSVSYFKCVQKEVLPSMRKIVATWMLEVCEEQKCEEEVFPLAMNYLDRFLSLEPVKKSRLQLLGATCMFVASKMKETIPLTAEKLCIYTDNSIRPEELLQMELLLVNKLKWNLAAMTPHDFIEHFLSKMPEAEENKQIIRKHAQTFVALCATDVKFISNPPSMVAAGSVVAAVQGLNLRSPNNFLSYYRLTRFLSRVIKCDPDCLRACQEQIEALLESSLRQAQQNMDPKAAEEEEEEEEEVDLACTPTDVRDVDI
Procedure: as §3

[7] = biological target: cyclic AMP-dependent kinase (PKA) catalytic subunit (Homo sapiens (Human), UniProt P17612); assay: Kinase assay PKA; details: read-out: Kinase inhibition PKA IC50
Procedure: as §3

[8] = 10 μM
Procedure: (§4) Calibration curves were prepared at 0, 1, and 10 μM in microsomes pre-incubated for 30 min and these were also treated with methanol containing olomoucine. All samples were then centrifuged and the supernatants analysed by liquid chromatography-mass spectrometry.
(§5) The chromatography column was a Supelco LC-ABZ, 50×4.6 mm, 5 μm zwitterionic column (Supelco Inc., Supelco Park, Bellefonte, Pa., USA). Gradient eluants consisted of methanol (A) and 0.1% formic acid in water (B). […] The flow rate was 1 mL/min throughout. […] Eluant from the detector passed, without splitting, into a Thernoquest LCQ ion trap mass spectrometer fitted with an electrospray source operated in positive mode. Mass spectrometer conditions were sheath gas 80, auxiliary gas 20 (both arbitrary units), capillary voltage 4 to 4.5 kV and heated capillary temperature 250 to 280° C. The mass range was 50-750. Scan time was controlled by the ion trap which was set to a maximum ion injection time of 200 ms or the time required to inject 2×10^8 ions; for each scan the system automatically used whichever time was reached first.
(§6) The peak area ration (test compound/internal standard) of the test incubation was then compared with the peak area ratios obtained fro the calibration curve of the test compound. From these values the concentration of test compound remaining after 30 min microsomal protein incubation was determined.

[9] = tested on: HT-29; assay: 72-h MTT assay HT-29; type: cell-based; details: Homo sapiens, read-out: 72-h MTT IC50, HT-29, colorectal adenocarcinoma
Procedure: as §1
(§2) Representative compounds of this invention were examined for their anti-proliferative effect against human tumour cell lines and immortalized non-transformed human cell lines (“normal” cell lines).

[10] = tested on: normal cell lines; assay: 72-h MTT assay, mean of normal cell lines; type: cell-based; details: Homo sapiens, read-out: 72-h MTT IC50
Procedure: as §1, §2

[11] = tested on: HeLa; assay: 72-h MTT assay HeLa; type: cell-based; details: Homo sapiens, read-out: 72-h MTT IC50, cervical adenocarcinoma
Procedure: as §1, §2

[12] = tested on: IMR90; assay: 72-h MTT assay IMR90; type: cell-based; details: Homo sapiens, IMR-90, 72 h, read-out: 72-h MTT IC50; IMR90, normal embryo lung fibroblast
Procedure: as §1, §2

[13] = tested on: WI38; assay: 72-h MTT assay WI38; type: cell-based; details: Homo sapiens, WI-38, 72 h, read-out: 72-h MTT IC50; WI38, normal foetal lung fibroblast
Procedure: as §1, §2

[14] = tested on: Hs27; assay: 72-h MTT assay Hs27; type: cell-based; details: Homo sapiens, read-out: 72-h MTT IC50, Hs27, normal foreskin fibroblast
Procedure: as §1, §2

[15] = tested on: A549; assay: 72-h MTT assay A549; type: cell-based; details: Homo sapiens, read-out: 72-h MTT IC50, A549, lung carcinoma
Procedure: as §1, §2

[16] = tested on: MCF7; assay: 72-h MTT assay MCF7; type: cell-based; details: Homo sapiens, read-out: 72-h MTT IC50, MCF7, mammary adenocarcinoma
Procedure: as §1, §2

[17] = tested on: cancer cell lines; assay: 72-h MTT assay, mean of cancer cell lines; type: cell-based; details: Homo sapiens, read-out: 72-h MTT IC50
Procedure: as §1, §2

[18] = tested on: Saos-2; assay: 72-h MTT assay Saos-2; type: cell-based; details: Homo sapiens, read-out: 72-h MTT IC50, Saos-2, osteosarcoma
Procedure: as §1, §2

[19] = tested on: K-562; assay: 72-h MTT assay K-562; type: cell-based; details: Homo sapiens, K562, 72 h, read-out: 72-h MTT IC50
Procedure: as §1, §2

[20] = tested on: CCRF-CEM; assay: 72-h MTT assay CCRF-CEM; type: cell-based; details: Homo sapiens, read-out: 72-h MTT IC50, acute lymphoblastic leukaemia
Procedure: as §1, §2

[21] = tested on: HL-60; assay: 72-h MTT assay HL-60; type: cell-based; details: Homo sapiens, read-out: 72-h MTT IC50, HL-60, acute promyelocytic leukaemia
Procedure: as §1, §2

[22] = Comparative in vitro metabolism assay (microsomal incubation)
Procedure: as §4, §5, §6

IC50 [1]	IC50 [2]	IC50 [3]	IC50 [4]	IC50 [6]	IC50 [7]	A × B [1]	B: IC50 CDK2 roscovitine/IC50 CDK2 compound [1]	% Drug after 30 min. microsomal incubation [8]	SMILES	IC50 [5]	C: IC50 cytotox. roscovitine/IC50 cytotox. compound [5]	also measured
1 µM	1.6 µM	23 µM	51 µM	24 µM	> 200 µM	–	–	–	CC[C@@H](Nc1nc(NCc2cccnc2)c2ncn(C(C)C)c2n1)C(O)C(C)(C)C (mixture of isomers) [(3RS,4R)-4-{9-Isopropyl-6-[(pyridin-3-ylmethyl)-amino]-9H-purin-2-ylamino}-2,2-dimethyl-hexan-3-ol]	19 µM	–	–
0.69 µM	2.2 µM	20 µM	111 µM	21 µM	200 µM	–	–	–	CC[C@@H](Nc1nc(NCc2cccnc2)c2ncn(C(C)C)c2n1)C(O)C(C)C (mixture of isomers) [(3RS,4R)-4-{9-Isopropyl-6-[(pyridin-3-ylmethyl)-amino]-9H-purin-2-ylamino}-2-methyl-hexan-3-ol]	28 µM	–	–
0.22 µM	1.1 µM	12 µM	37 µM	25 µM	> 200 µM	1.0	0.5	70%	CCC(O)[C@@H](CC)Nc1nc(NCc2cccnc2)c2ncn(C(C)C)c2n1 (mixture of isomers) [(3RS,4R)-4-{9-Isopropyl-6-[(pyridin-3-ylmethyl)-amino]-9H-purin-2-ylamino}-hexan-3-ol]	10 µM	1.1	–
0.39 µM	3.5 µM	21 µM	23 µM	13 µM	> 200 µM	0.4	0.3	50%	CC[C@H](Nc1nc(NCc2cccnc2)c2ncn(C(C)C)c2n1)C(O)C(C)(C)C (mixture of isomers) [(3RS,4S)-4-{9-Isopropyl-6-[(pyridin-3-ylmethyl)-amino]-9H-purin-2-ylamino}-2,2-dimethyl-hexan-3-ol]	15 µM	0.8	–
1.1 µM	3.5 µM	22 µM	67 µM	31 µM	> 200 µM	–	–	–	CC[C@H](Nc1nc(NCc2cccnc2)c2ncn(C(C)C)c2n1)C(O)C(C)C (mixture of isomers) [(3RS,4S)-4-{9-Isopropyl-6-[(pyridin-3-ylmethyl)-amino]-9H-purin-2-ylamino}-2-methyl-hexan-3-ol]	19 µM	–	–
0.11 µM	1.5 µM	13 µM	17 µM	11 µM	> 200 µM	2.1	1.0	73%	CCC(O)[C@H](CC)Nc1nc(NCc2cccnc2)c2ncn(C(C)C)c2n1 (mixture of isomers) [(3RS,4S)-4-{9-Isopropyl-6-[(pyridin-3-ylmethyl)-amino]-9H-purin-2-ylamino}-hexan-3-ol]	5.5 µM	2.1	–
–	–	2.2 µM	20 µM	–	> 200 µM	7.5	–	67%	CC[C@H](Nc1nc(NCc2cccnc2)c2ncn(C(C)C)c2n1)[C@@H](C)O [(2R3S)-3-{9-Isopropyl-6-[(pyridin-3-ylmethyl)-amino]-9H-purin-2-ylamino}-pentan-2-ol]	0.8 µM	–	IC50 [9]: 1.1 ± 0.2 µM; IC50 [10]: > 10 µM; IC50 [11]: 1.4 ± 0.2 µM; IC50 [12]: > 20 µM; IC50 [13]: 6.1 ± 0.3 µM; IC50 [14]: 5.9 ± 0.3 µM; IC50 [15]: 0.9 ± 0.1 µM; IC50 [16]: 0.7 ± 0.1 µM; IC50 [17]: 1.1 ± 0.3 µM; IC50 [18]: 1.2 ± 0.2 µM
–	–	4.9 µM	23 µM	–	> 200 µM	3.1	–	90%	CC[C@@H](Nc1nc(NCc2cccnc2)c2ncn(C(C)C)c2n1)[C@H](C)O [(2S3R)-3-{9-Isopropyl-6-[(pyridin-3-ylmethyl)-amino]-9H-purin-2-ylamino}-pentan-2-ol]	1.5 µM	–	IC50 [9]: 2.3 ± 0.6 µM; IC50 [10]: > 10 µM; IC50 [11]: 2.9 ± 0.2 µM; IC50 [12]: > 20 µM; IC50 [13]: 11.2 ± 1.2 µM; IC50 [14]: 10.2 ± 0.6 µM; IC50 [15]: 2.1 ± 0.4 µM; IC50 [16]: 1.6 ± 0.2 µM; IC50 [17]: 2.3 ± 0.5 µM; IC50 [18]: 2.8 ± 0.1 µM
0.2 µM	3.1 µM	6.2 µM	91 µM	7.5 µM	> 200 µM	1.3	0.5	84%	CC[C@@H](Nc1nc(NCc2cccnc2)c2ncn(C(C)C)c2n1)C(C)(C)O [(3R)-3-{9-Isopropyl-6-[(pyridin-3-ylmethyl)-amino]-9H-purin-2-ylamino}-2-methyl-pentan-2-ol]	5.6 µM	2.1	–
0.07 µM	2.5 µM	4.4 µM	35 µM	12 µM	> 200 µM	3.2	1.4	78%	CC[C@H](Nc1nc(NCc2cccnc2)c2ncn(C(C)C)c2n1)C(C)(C)O [(3S)-3-{9-Isopropyl-6-[(pyridin-3-ylmethyl)-amino]-9H-purin-2-ylamino}-2-methyl-pentan-2-ol]	4 µM	2.9	IC50 [19]: 8.4 ± 1.2 µM; IC50 [9]: 2.3 ± 0.9 µM; IC50 [10]: > 10 µM; IC50 [20]: 3.7 ± 0.3 µM; IC50 [11]: 4.7 ± 0.5 µM; IC50 [12]: > 20 µM; IC50 [13]: > 20 µM; IC50 [14]: 11.3 ± 0.7 µM; IC50 [21]: 3 ± 0.2 µM; IC50 [15]: 3.6 ± 0.2 µM; IC50 [16]: 2.3 ± 0.3 µM; IC50 [17]: 4 ± 2 µM; IC50 [18]: 3.9 ± 0.8 µM
–	–	–	–	–	–	–	–	–	CC[C@H](CO)Nc1nc(NCc2ccccc2)c2ncn(C(C)C)c2n1 [Roscovitine, roscovitine]	–	–	% Drug after 30 min. microsomal incubation ([22]; 10 μM compound, 30 min, microsomal protein 0.2 mg, NADPH): 33%; A: % Compound remaining/% roscovitine remaining ([22]; ratio to roscovitine): 1.0

From US8846696B2, “Purine derivatives” (Cyclacel Limited, priority 2002, dated 2014)
